Measurements as given in ChEMBL document CHEMBL1131754, “2-heterosubstituted-3-(4-methylsulfonyl)phenyl-5-trifluoromethyl pyridines as selective and orally active cyclooxygenase-2 inhibitors” (Bioorg Med Chem Lett, 1999).
pIC50: −log10 of the molar value.

Legend:
[1] = target: T1, Prostaglandin G/H synthase 1 (Homo sapiens, UniProt P23219); assay: In vitro inhibitory concentration required against Cyclooxygenase-1 (COX-1) determined in human whole blood (HWB) assay; type: tissue-based
[2] = target: T2, Prostaglandin G/H synthase 2 (Homo sapiens, UniProt P35354); type: cell-based, CHO whole
T2 sequence (P35354 whole entry): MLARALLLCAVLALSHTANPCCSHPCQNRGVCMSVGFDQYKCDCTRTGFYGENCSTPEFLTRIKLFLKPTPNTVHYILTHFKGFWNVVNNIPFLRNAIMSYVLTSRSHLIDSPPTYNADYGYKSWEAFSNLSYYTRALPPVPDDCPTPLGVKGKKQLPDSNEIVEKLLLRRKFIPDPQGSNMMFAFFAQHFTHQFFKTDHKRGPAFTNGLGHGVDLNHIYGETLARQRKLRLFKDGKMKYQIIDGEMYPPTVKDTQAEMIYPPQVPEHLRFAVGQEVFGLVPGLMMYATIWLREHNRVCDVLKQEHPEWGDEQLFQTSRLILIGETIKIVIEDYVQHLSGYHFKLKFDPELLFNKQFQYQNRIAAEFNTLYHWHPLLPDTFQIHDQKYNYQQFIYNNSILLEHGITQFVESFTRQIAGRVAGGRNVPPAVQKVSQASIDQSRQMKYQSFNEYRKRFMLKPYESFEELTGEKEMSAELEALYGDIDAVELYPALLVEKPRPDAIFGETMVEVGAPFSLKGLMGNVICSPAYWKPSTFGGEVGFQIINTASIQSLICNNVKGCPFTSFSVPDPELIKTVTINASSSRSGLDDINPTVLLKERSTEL
Description: Inhibition of Prostaglandin G/H synthase 2 in CHO whole cell assay

[3] = target: T2, Prostaglandin G/H synthase 2
Description: Inhibition of Prostaglandin G/H synthase 2 in human whole blood (HWB) assay

[4] = Half-life in rats with metabolic oxidation; type: ADME, organism-based; settings: rat, in vivo
[5] = Oral bioavailability in rat; type: ADME, organism-based; settings: in vivo
[6] = system: Rattus norvegicus; assay: Compound was tested in vivo for its efficacy in the rat paw edema assay; type: functional
[7] = system: Rattus norvegicus; assay: Compound was tested in vivo for its efficacy in the rat pyresis assay; type: functional
[8] = system: Rattus norvegicus; assay: Compound was tested in vivo for its efficacy in the model of carrageenan-induced hyperalgesia in rats; type: functional; settings: read-out: ID50 (the source's name)
[9] = target: T1, Prostaglandin G/H synthase 1
Description: Inhibition of Prostaglandin G/H synthase 1 in human whole blood (HWB) assay

[10] = Half-life in rats was determined; type: ADME, organism-based; settings: rat, in vivo
[11] = Half-life in rats; type: ADME, organism-based; settings: rat, in vivo
[12] = Maximum concentration in rats at 1-2 hours; type: ADME, organism-based; settings: rat, in vivo
[13] = Maximum concentration in rats; type: ADME, organism-based; settings: rat, in vivo
[14] = Half life in rats; type: ADME, organism-based; settings: rat, in vivo
[15] = Cmax in rats determined 6 hours after oral dosing of 20 mg/kg; type: ADME, organism-based; set-up: dose 20 mg/kg, route oral; settings: rat, in vivo

T1 sequence (P23219 whole entry): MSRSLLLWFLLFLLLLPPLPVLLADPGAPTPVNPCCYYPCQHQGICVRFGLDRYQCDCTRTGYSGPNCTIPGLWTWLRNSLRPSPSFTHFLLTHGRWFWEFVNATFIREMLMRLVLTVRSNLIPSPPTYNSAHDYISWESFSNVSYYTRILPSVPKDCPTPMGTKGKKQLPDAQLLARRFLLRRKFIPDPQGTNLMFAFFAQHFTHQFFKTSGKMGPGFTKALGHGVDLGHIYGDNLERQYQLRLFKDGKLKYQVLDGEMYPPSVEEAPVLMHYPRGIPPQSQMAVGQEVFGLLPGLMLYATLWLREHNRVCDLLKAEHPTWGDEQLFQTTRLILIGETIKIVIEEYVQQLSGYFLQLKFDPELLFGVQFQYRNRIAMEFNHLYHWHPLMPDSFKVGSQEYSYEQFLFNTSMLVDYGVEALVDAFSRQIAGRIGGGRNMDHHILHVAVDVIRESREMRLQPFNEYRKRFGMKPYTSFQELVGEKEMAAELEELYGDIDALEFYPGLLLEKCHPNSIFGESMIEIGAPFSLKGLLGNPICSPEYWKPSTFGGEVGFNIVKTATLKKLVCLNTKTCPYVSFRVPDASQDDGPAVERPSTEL

| Structure (SMILES) | pIC50 [2] | pIC50 [3] | bioavailability [5] | pIC50 [9] | ED50 [6] | ED50 [7] | other results |
| --- | --- | --- | --- | --- | --- | --- | --- |
| CS(=O)(=O)c1ccc(-c2cc(C(F)(F)F)cnc2Oc2ccccc2)cc1 | > 6.70 | > 6.40 |  |  |  |  | pIC50 [1]: > 5.91 |
| C[C@H](CO)Sc1ncc(C(F)(F)F)cc1-c1ccc(S(C)(=O)=O)cc1 | > 6.70 | 6.85 | > 75% | 4.54 | 0.3 mg/kg | 0.3 mg/kg | half-life [4]: < 2 h; ED50 [8]: 0.65 mg/kg |
| CC(C)(O)CSc1ncc(C(F)(F)F)cc1-c1ccc(S(C)(=O)=O)cc1 |  |  | > 75% |  | 1.5 mg/kg | 0.5 mg/kg | half-life [10]: > 12 h |
| CS(=O)(=O)c1ccc(-c2cc(C(F)(F)F)cnc2OCC2(O)CCCC2)cc1 |  |  | > 75% | 4.08 | 1.8 mg/kg | 2.2 mg/kg | half-life [11]: ≤ 4 h; Cmax [12]: 9 µM |
| CS(=O)(=O)c1ccc(-c2cc(C(F)(F)F)cnc2OCc2ccc(Cl)cc2)cc1 | > 6.70 | < 4.48 |  | < 4.00 |  |  |  |
| C[C@]1(O)CCC[C@H]1Oc1ncc(C(F)(F)F)cc1-c1ccc(S(C)(=O)=O)cc1 |  |  | > 75% | < 4.00 | 0.4 mg/kg | 1.6 mg/kg | Cmax [13]: 9 µM; half-life [14]: ≤ 4 h |
| CS(=O)(=O)c1ccc(-c2cc(C(F)(F)F)cnc2N2CCCC(CO)C2)cc1 (stereo not drawn) | > 6.70 | 6.10 | > 75% | 4.39 | 1.4 mg/kg | 0.5 mg/kg | half-life [10]: < 2 h |
| CS(=O)(=O)c1ccc(-c2cc(Br)sc2-c2ccc(F)cc2)cc1 [DUP-697] |  |  |  |  | 1.3 mg/kg |  |  |
| COc1ccc2c(c1)c(CC(=O)O)c(C)n2C(=O)c1ccc(Cl)cc1 [INDOMETHACIN] |  |  |  |  | 2 mg/kg | 1.1 mg/kg | ED50 [8]: 1.5 mg/kg |

Second part, led by results:

| pIC50 [2] | pIC50 [3] | bioavailability [5] | pIC50 [9] | Structure (SMILES) | ED50 [6] | ED50 [7] | other results |
| --- | --- | --- | --- | --- | --- | --- | --- |
| > 6.70 | 6.34 | > 75% | < 4.00 | C[C@H](Oc1ncc(C(F)(F)F)cc1-c1ccc(S(C)(=O)=O)cc1)C(C)(C)O | 2.2 mg/kg | 0.8 mg/kg |  |
| > 6.70 | 5.33 | > 75% | < 4.00 | CCC(O)(CC)[C@H](C)Oc1ncc(C(F)(F)F)cc1-c1ccc(S(C)(=O)=O)cc1 | 2.8 mg/kg | 1.3 mg/kg |  |
| > 6.70 | 6.30 |  | < 4.00 | CS(=O)(=O)c1ccc(-c2cc(C(F)(F)F)cnc2OCC(F)(F)F)cc1 | 2.4 mg/kg |  | Cmax [15]: 2.4 µM |
| > 6.70 | 6.00 | > 75% | < 4.00 | CC(C)(O)COc1ncc(C(F)(F)F)cc1-c1ccc(S(C)(=O)=O)cc1 | 1.9 mg/kg | 6.8 mg/kg | half-life [11]: > 12 h |
| > 6.70 | 6.30 |  | < 4.00 | CS(=O)(=O)c1ccc(-c2cc(C(F)(F)F)cnc2OC(C(F)(F)F)C(F)(F)F)cc1 |  |  |  |
